Assay results: patent publication US8791132B2, “Compounds and methods for treatment of hypertension” (Medivation Technologies, Inc., priority 2011, dated 2014)
Where “and” joins values, the source holds several entries; their conditions need not be identical. Identical values can stand only once.

How the values were obtained:
[1] = biological target: T1, human recombinant adrenergic α2B receptor (Homo sapiens, UniProt P18089); assay: Radioligand binding, adrenergic α2B ([3H]Rauwolscine); conditions: 0.1 μM compound; for inhibition at 0.1 µM: read-out: Percentage inhibition of ligand binding, Adrenergic α2B
T1 construct: expressed in transfected cells; host or cells: CHO-K1
T1 sequence (P18089 1-450): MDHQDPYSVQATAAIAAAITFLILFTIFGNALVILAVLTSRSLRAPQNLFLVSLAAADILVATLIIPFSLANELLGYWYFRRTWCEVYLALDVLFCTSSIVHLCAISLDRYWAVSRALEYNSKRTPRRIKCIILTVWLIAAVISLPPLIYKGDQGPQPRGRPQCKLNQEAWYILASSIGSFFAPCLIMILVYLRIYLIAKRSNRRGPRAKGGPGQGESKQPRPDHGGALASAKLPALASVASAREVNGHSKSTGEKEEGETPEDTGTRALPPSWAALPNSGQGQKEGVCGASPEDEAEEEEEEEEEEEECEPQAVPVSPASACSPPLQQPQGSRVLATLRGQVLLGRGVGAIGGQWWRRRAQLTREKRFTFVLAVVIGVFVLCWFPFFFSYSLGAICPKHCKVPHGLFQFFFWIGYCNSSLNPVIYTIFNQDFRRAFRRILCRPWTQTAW
How it was run: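 Membranes from CHO-K1 cells expressing human recombinant α2B, in 50 mM Tris-HCl pH 7.4, 12.5 mM MgCl2, 1 mM EDTA, 0.2% BSA, incubated with compound and 2.5 nM [3H]Rauwolscine, 60 min, 25 °C.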

[2] = biological target: T2, human recombinant adrenergic α2A receptor (Homo sapiens, UniProt P08913); assay: Radioligand binding, adrenergic α2A ([3H]MK-912); conditions: 0.1 μM compound; for inhibition at 0.1 µM: read-out: Percentage inhibition of ligand binding, Adrenergic α2A
T2 construct: expressed in transfected cells; host or cells: insect Sf9 cells
T2 sequence (P08913 1-465): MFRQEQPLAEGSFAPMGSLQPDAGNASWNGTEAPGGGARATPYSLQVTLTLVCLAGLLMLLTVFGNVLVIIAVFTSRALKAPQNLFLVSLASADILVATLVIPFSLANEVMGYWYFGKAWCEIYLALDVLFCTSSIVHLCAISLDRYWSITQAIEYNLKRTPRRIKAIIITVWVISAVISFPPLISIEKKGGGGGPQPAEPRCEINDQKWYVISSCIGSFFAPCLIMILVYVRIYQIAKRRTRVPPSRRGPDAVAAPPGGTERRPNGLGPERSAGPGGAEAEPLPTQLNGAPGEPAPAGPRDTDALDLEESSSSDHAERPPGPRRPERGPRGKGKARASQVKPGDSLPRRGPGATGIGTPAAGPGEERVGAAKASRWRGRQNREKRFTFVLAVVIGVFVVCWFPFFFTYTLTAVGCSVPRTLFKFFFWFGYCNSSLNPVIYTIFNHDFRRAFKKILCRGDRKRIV
How it was run: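 Displacement of 1 nM [3H]MK-912 from receptor produced in insect Sf9 cells was measured after 60 min at 25 °C. Readout: percent inhibition of specific binding.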

[3] = biological target: T3, rat adrenergic α1B receptor (Rattus norvegicus, UniProt P15823); assay: Radioligand binding, adrenergic α1B ([3H]Prazosin); conditions: 0.1 μM compound; for inhibition at 0.1 µM: read-out: Percentage inhibition of ligand binding, Adrenergic α1B
T3 construct: rat adrenergic α1B receptor obtained from Wistar Rat liver; from tissue; host or cells: Wistar rat liver
T3 sequence (P15823 1-515): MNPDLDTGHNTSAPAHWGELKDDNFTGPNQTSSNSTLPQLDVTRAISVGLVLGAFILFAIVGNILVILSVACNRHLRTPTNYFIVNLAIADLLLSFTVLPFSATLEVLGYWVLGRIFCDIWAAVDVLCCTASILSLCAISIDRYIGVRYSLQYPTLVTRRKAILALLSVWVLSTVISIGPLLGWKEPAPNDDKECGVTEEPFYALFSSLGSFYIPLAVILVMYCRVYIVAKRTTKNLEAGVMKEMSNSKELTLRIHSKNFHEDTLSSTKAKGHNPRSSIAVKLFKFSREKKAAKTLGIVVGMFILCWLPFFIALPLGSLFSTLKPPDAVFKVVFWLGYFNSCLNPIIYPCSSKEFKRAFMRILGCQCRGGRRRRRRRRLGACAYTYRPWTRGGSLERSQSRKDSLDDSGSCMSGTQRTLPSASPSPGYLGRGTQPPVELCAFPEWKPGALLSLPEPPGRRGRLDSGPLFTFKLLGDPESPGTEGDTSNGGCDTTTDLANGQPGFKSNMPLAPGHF
How it was run: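 Rat α1B receptor from Wistar rat liver was incubated with 0.25 nM [3H]prazosin for 60 min at 25 °C in 50 mM Tris-HCl, pH 7.4, 0.5 mM EDTA. Non-specific binding was defined with 10 μM phentolamine. Bound radioligand was measured by filtration and counting, reported as percent inhibition of specific binding.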

[4] = biological target: T4, human recombinant adrenergic α1D receptor (Homo sapiens, UniProt P25100); assay: Radioligand binding, adrenergic α1D ([3H]Prazosin); conditions: 0.1 μM compound; for inhibition at 0.1 µM: read-out: Percentage inhibition of ligand binding, Adrenergic α1D
T4 construct: expressed in transfected cells; host or cells: HEK-293
T4 sequence (P25100 1-572): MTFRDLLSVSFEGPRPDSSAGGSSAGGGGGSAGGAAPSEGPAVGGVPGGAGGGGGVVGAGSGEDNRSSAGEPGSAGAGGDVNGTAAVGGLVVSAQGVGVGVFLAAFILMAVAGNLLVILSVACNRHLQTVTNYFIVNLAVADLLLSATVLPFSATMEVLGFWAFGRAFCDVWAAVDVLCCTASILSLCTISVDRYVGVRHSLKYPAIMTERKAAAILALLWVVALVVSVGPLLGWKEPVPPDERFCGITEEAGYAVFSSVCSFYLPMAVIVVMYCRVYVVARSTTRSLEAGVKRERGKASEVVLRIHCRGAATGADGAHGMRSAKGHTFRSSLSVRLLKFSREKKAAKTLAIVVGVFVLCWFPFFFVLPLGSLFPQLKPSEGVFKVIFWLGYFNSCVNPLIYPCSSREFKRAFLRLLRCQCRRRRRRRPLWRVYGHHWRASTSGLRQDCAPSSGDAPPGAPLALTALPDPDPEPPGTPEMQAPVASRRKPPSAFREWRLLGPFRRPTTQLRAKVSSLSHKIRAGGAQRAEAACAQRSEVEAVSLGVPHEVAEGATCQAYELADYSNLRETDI
Method: Compounds were incubated with 0.6 nM [3H]Prazosin for 60 min at 25° C. Non-specific binding was estimated in the presence of 10 μM phentolamine. Receptor proteins were filtered and washed, the filters were then counted to determine [3H]Prazosin specifically bound. […] Biochemical assay results are presented as the percent inhibition of specific binding in Table B1.

Q: Which inhibition at 0.1 µM [1] does the source give for `C/C(=C/n1c2c(c3cc(C)ccc31)CCN(C)CC2)c1cccc(F)c1` [compound 249] here?
A: 98%

Q: And the inhibition at 0.1 µM [2]?
A: 98%

Q: And the inhibition at 0.1 µM [3]?
A: 95%

Q: And the inhibition at 0.1 µM [4]?
A: 82%

Q: `C/C(=C\n1c2c(c3cc(C)ccc31)CN(C)CC2)c1cccnc1` [compound 250] was tested. Which inhibition at 0.1 µM [1] did it give?
A: 105%

Q: What about the inhibition at 0.1 µM [2] of the same molecule?
A: 62%

Q: What about the inhibition at 0.1 µM [3] of the same molecule?
A: 37%

Q: What about the inhibition at 0.1 µM [4] of the same molecule?
A: 22%

Q: Which results are given for `COc1ccc(/C(C)=C/n2c3c(c4cc(C)ccc42)CCN(C)CC3)cc1` [compound 251]?
A: inhibition at 0.1 µM [1]: 101%; inhibition at 0.1 µM [2]: 85%; inhibition at 0.1 µM [3]: 89%; inhibition at 0.1 µM [4]: 53%

Q: Which inhibition at 0.1 µM [1] does the source give for `C/C(=C/n1c2c(c3cc(Cl)ccc31)CN(C)CC2)c1cc(F)c(F)cc1Cl` [compound 252] here?
A: 52%

Q: What about the inhibition at 0.1 µM [2] of the same molecule?
A: 66%

Q: And the inhibition at 0.1 µM [3]?
A: 36%

Q: And the inhibition at 0.1 µM [4]?
A: 13%

Q: With `CN1CCc2c(c3cc(Cl)c(Cl)cc3n2CC(C)(O)c2ccncc2)C1` (stereo not drawn) [compound 253] as the molecule, how does the “Percentage inhibition of ligand binding, Adrenergic α2B” value ([1]; 0.1 µM) read?
A: 64% and 86%

Q: What about the “Percentage inhibition of ligand binding, Adrenergic α2A” value ([2]; 0.1 µM) of the same molecule?
A: 64%

Q: And the inhibition at 0.1 µM [2]?
A: 44%

Q: And the “Percentage inhibition of ligand binding, Adrenergic α1B” value ([3]; 0.1 µM)?
A: 55%

Q: And the inhibition at 0.1 µM [3]?
A: 54%

Q: What about the “Percentage inhibition of ligand binding, Adrenergic α1D” value ([4]; 0.1 µM) of the same molecule?
A: 24%

Q: What about the inhibition at 0.1 µM [4] of the same molecule?
A: 18%

Q: For `Cc1ccc2c(c1)c1c(n2CC(C)c2ccncc2)CCN(C)C1` (stereo not drawn) [compound 255], which inhibition at 0.1 µM [1] is on record?
A: 96%

Q: And the inhibition at 0.1 µM [2]?
A: 63%

Q: And the inhibition at 0.1 µM [3]?
A: 55%

Q: What about the inhibition at 0.1 µM [4] of the same molecule?
A: 43%

Q: How did the inhibition at 0.1 µM [1] turn out when `Cc1ccc2c(c1)c1c(n2C#Cc2cccc(N(C)C)c2)CCN(C)C1` [compound 256] was run?
A: 58%

Q: And the inhibition at 0.1 µM [2]?
A: 55%

Q: What about the inhibition at 0.1 µM [3] of the same molecule?
A: 47%

Q: And the inhibition at 0.1 µM [4]?
A: 23%

Q: What does the source list for `C/C(=C\n1c2c(c3cc(Cl)ccc31)CN(C)C(C)C2)c1ccc(C)nc1` (stereo not drawn) [compound 257]?
A: inhibition at 0.1 µM [1]: 100%; inhibition at 0.1 µM [2]: 84%; inhibition at 0.1 µM [3]: 51%; inhibition at 0.1 µM [4]: 24%

Q: What does the source list for `C/C(=C/n1c2c(c3cc(C)ccc31)CN(C)CC2)c1ccc(F)cc1F` [compound 258]?
A: inhibition at 0.1 µM [1]: 99%; inhibition at 0.1 µM [2]: 94%; inhibition at 0.1 µM [3]: 93%; inhibition at 0.1 µM [4]: 74%

Q: With `C/C(=C\n1c2c(c3cc(C)ccc31)CN(C)CC2)c1ccccn1` [compound 259] as the molecule, how does the inhibition at 0.1 µM [1] read?
A: 98%

Q: What about the inhibition at 0.1 µM [2] of the same molecule?
A: 82%

Q: And the inhibition at 0.1 µM [3]?
A: 71%

Q: And the inhibition at 0.1 µM [4]?
A: 53%

Q: `Cc1ccc2c(c1)c1c(n2CC(C)(C)c2ccncc2)CCN(C)C1` [compound 260] was tested. Which inhibition at 0.1 µM [1] did it give?
A: 92%

Q: What about the inhibition at 0.1 µM [2] of the same molecule?
A: 54%

Q: What about the inhibition at 0.1 µM [3] of the same molecule?
A: 45%

Q: And the inhibition at 0.1 µM [4]?
A: 26%

Q: Which results are given for `C/C(=C\n1c2c(c3cc(C)ccc31)CN(C)CC2)C1CCCCC1` [compound 261]?
A: inhibition at 0.1 µM [1]: 84%; inhibition at 0.1 µM [2]: 84%; inhibition at 0.1 µM [3]: 50%; inhibition at 0.1 µM [4]: 30%
